This note sets out measurements from patent publication US20030040538A1, “Novel substituted tricyclic compounds” (priority 1999, published 2003).

For this assay, the target named is T1, human β3 (Homo sapiens, UniProt P13945).
T1 construct: the full length human β3 gene was obtained from a human genomic library; expressed in transfected cells; host or cells: CHO (Chinese hamster ovary) cells, pcDNA3 vector
Description: Human β3-agonist activities (cAMP in CHO cells transfected with human β3 gene). In kind it is cell-based. The settings on record: CHO cells expressing human β3; for EC50: cAMP quantitated with EIA kit after 30 minutes, read-out: human β3-agonist activity (ED50); for Emax: read-out: intrinsic activity as compared with Isoproterenol. The procedure: Human β3-Agonist Activities
Human β3-agonist activities were determined using CHO (Chinese hamster ovary) cells transfected with pcDNA3 (mfd. by Invitrogen) to which human β3 gene had been inserted. Human β3 fragment was first obtained from human adipose tissue cDNA (mfd. by Clonetech) by PCR using the primer of β3 (Krief, et al., J. Clin. Invest., 91, p. 344 (1993)). The human β3 fragment obtained was then used as a probe and then the full length human β3 gene was obtained from a human genomic library (mfd. by Clonetech).
The above cells were cultured in a Ham F-12 medium supplemented with 10% fetal bovine serum (mfd. by Dainippon Pharmaceutical), 400 μg/mL geneticin (Gibco BRL), 100 U/mL penicillin and 100 μg/mL streptomycin. After placing these cells (5×10^5) into a 6-well plate and culturing them for 24 hours, they were allowed to stand on a serum-free Ham F-12 medium for 2 hours. The compound was first dissolved in DMSO, repeatedly diluted by ten times with Ham F-12 supplemented with 1 mM isobutylmethylxanthine and 1 mM ascorbic acid to a final concentration of from 10^−5 to 10^−12 M, and then added to the cells.
After the cells were cultured for 30 minutes, the medium was removed followed by addition of 0.5 mL of an aqueous 1 N sodium hydroxide solution. The medium was allowed to stand for 20 minutes and then 0.5 mL of an aqueous 1 N acetic acid solution was added to the medium. The medium was stirred and centrifuged followed by quantitating cAMP with cAMP EIA kit (mfd. by Cayman). Isoproterenol was purchased from RBI (Research Biochemicals International).

Setting [1] is: cAMP, relative to Isoproterenol.

Counter-ions that a name gives are not always drawn.

T1 sequence (P13945 whole entry): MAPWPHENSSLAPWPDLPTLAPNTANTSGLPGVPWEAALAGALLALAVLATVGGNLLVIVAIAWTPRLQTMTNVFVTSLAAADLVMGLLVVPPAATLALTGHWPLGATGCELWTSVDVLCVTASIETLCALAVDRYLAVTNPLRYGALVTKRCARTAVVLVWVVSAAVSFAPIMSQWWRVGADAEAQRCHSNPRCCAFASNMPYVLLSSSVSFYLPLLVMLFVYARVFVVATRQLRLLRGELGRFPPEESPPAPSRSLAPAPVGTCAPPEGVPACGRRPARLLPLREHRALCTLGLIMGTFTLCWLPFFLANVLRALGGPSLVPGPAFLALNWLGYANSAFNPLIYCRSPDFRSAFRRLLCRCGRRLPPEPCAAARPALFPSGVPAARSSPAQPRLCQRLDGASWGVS

As to `CS(=O)(=O)Nc1cccc([C@@H](O)CNCCOc2ccc3c(c2)[nH]c2cc(O)ccc23)c1` [Example 2, (R)-N-[3-[2-[2-(7-hydroxy-9H-carbazol-2-yloxy)ethylamino]-1-hydroxyethyl]phenyl]methanesulfonamide Hydrochloride], the EC50 was determined as 0.8 nM. For the same compound, the Emax under setting [1] came to 82%.
The like results for `CS(=O)(=O)Nc1cc([C@@H](O)CNCCOc2ccc3c(c2)[nH]c2cc(O)ccc23)ccc1Cl` [Example 3, (R)-N-[2-chloro-5-[2-[2-(7-hydroxy-9H-carbazol-2-yloxy)ethylamino]-1-hydroxyethyl]phenyl]methanesulfonamide Hydrochloride] were, in that order, 1.5 nM and 75%.
Take `CC(=O)Nc1ccc2c(c1)[nH]c1cc(OCCNC[C@H](O)c3cccc(NS(C)(=O)=O)c3)ccc12` [Example 8, (R)-N-[3-[2-[2-(7-acetamido-9H-carbazol-2-yloxy)-ethylamino]-1-hydroxyethyl]phenyl]methanesulfonamide Hydrochloride]: the EC50 was found to be 0.35 nM. Besides, the Emax under setting [1] is 47%.
With `CS(=O)(=O)Nc1cccc([C@@H](O)CNCCOc2ccc3c(c2)[nH]c2cc(N)ccc23)c1` [Example 9, (R)-N-[3-[2-[2-(7-amino-9H-carbazol-2-yloxy)ethylamino]-1-hydroxyethyl]phenyl]methanesulfonamide Dihydrochloride], the EC50 turned out to be 1 nM. In addition, the Emax under setting [1] was 102%.
The like results for `CC(C)(C)C(=O)Oc1ccc2c(c1)[nH]c1cc(OCCNCC(O)c3cccc(NS(C)(=O)=O)c3)ccc12` (stereo not drawn) [Example 10] were, in that order, 2.4 nM and 112%.
Take `CCN(c1ccc2c(c1)[nH]c1cc(OCCNC[C@H](O)c3cccc(NS(C)(=O)=O)c3)ccc12)S(C)(=O)=O.Cl` [Example 33, (R)-N-[3-[2-[2-[7-(N′-ethyl-N′-methylsulfonylamino)-9H-carbazol-2-yloxy]ethylamino]-1-hydroxyethyl]phenyl]methanesulfonamide Hydrochloride]: the EC50 came out at 0.22 nM. The “intrinsic activity as compared with Isoproterenol” value under setting [1] was found to be 94%.
For `CS(=O)(=O)Nc1cccc([C@@H](O)CNCCOc2ccc3c(c2)[nH]c2cc(NS(C)(=O)=O)ccc23)c1` [Example 35, (R)-N-[3-[1-hydroxy-2-[2-(7-N′-methylsulfonylamino-9H-carbazol-2-yloxy)ethylamino]ethyl]phenyl]methanesulfonamide Hydrochloride], the EC50 is 0.16 nM. Moreover, the Emax under setting [1] was found to be 96%.
The like results for `COCCOc1ccc2c(c1)[nH]c1cc(OCCNC[C@H](O)c3cccc(NS(C)(=O)=O)c3)ccc12` [Example 43, (R)-N-[3-[1-hydroxy-2-[2-[7-(2-methoxyethoxy)-9H-carbazol-2-yloxy]ethylamino]ethyl]phenyl]methanesulfonamide Hydrochloride] were, in that order, 0.69 nM and 114%.
Take `CS(=O)(=O)Nc1cccc([C@@H](O)CNCCOc2ccc3c(c2)[nH]c2cc(OCC(=O)O)ccc23)c1` [Example 45, (R)-N-[3-[2-[2-(7-hydroxycarbonylmethoxy-9H-carbazol-2-yloxy)ethylamino]-1-hydroxyethyl]phenyl]methanesulfonamide]: the EC50 stood at 2.6 nM. In addition, the Emax under setting [1] worked out at 114%.
